According to PubChem BioAssay AID743352 (Broad Institute, 2014):
Activity calls are given as the source filed them. No rule for the calls is given here.

System: M. tuberculosis BioA-TetON underexpression strain, growth inhibition
Assay: m tuberculosis bioa teton underexpression strain, growth inhibition, cell based, single point (AID 743352)

SMILES	IC90
CNC(=O)c1ccc(N2CCN(C(=O)c3ccc4c(c3)OCO4)CC2)cc1	> 50 µM (inactive)
CN1c2ccc(-c3cccc(F)c3)cc2[C@H]2[C@H](CCN2C(=O)CCCCCCC(=O)O)[C@H]1CO	> 50 µM (inactive)
COc1ccc(NC(=O)N2CC[C@@H]3[C@@H](CO)N(C)c4ccc(-c5cccc(F)c5)cc4[C@@H]32)cc1	> 50 µM (inactive)
CC(C)NC(=O)N1CC[C@@H]2[C@@H](CO)N(C)c3ccc(-c4ccc(F)cc4)cc3[C@@H]21	> 50 µM (inactive)
CN1c2ccc(-c3cccc(F)c3)cc2[C@H]2[C@H](CCN2C(=O)c2ccc3c(c2)OCO3)[C@@H]1CO	> 50 µM (inactive)
CC(C)NC(=O)N1CC[C@@H]2[C@@H](CO)N(C)c3ccc(-c4cccc(F)c4)cc3[C@@H]21	> 50 µM (inactive)
COc1ccccc1NC(=O)N1CC[C@@H]2[C@@H](CO)N(C)c3ccc(-c4cccc(F)c4)cc3[C@@H]21	> 50 µM (inactive)
CC(=O)c1ccc(N2CCN(C(=O)c3ccc4c(c3)OCO4)[C@H](C)C2)cc1	17.3 µM
CC(=O)c1ccc(N2CCN(C(=O)c3ccccc3F)CC2)cc1	> 50 µM (inactive)
CCC(=O)N1CC[C@@H]2[C@@H](CO)N(C)c3ccc(-c4ccc(F)cc4)cc3[C@@H]21	> 50 µM (inactive)
COC(=O)CCCCCCC(=O)N1CC[C@@H]2[C@@H](CO)N(C)c3ccc(-c4cccc(F)c4)cc3[C@@H]21	> 50 µM (inactive)
COc1ccccc1NC(=O)N1CC[C@@H]2[C@@H](CO)N(C)c3ccc(-c4ccc(F)cc4)cc3[C@@H]21	> 50 µM (inactive)
CC(=O)c1ccc(N2CC3(CN(C(=O)c4ccc5c(c4)OCO5)C3)C2)cc1	> 50 µM (inactive)
CC(=O)c1ccc(NCCNC(=O)c2ccc3c(c2)OCO3)cc1	> 50 µM (inactive)
CN1c2ccc(-c3ccc(F)cc3)cc2[C@H]2[C@H](CCN2C(=O)Cc2ccccn2)[C@H]1CO	> 50 µM (inactive)
CN1c2ccc(-c3ccc(F)cc3)cc2[C@H]2[C@H](CCN2C(=O)Nc2cc(F)ccc2F)[C@H]1CO	> 50 µM (inactive)
COc1cccc(NC(=O)N2CC[C@@H]3[C@@H](CO)N(C)c4ccc(-c5cccc(F)c5)cc4[C@@H]32)c1	> 50 µM (inactive)

SMILES	IC90
CN1c2ccc(-c3cccc(F)c3)cc2[C@@H]2[C@@H](CCN2C(=O)c2ccc3c(c2)OCO3)[C@@H]1CO	> 50 µM (inactive)
CN1c2ccc(-c3cccc(F)c3)cc2[C@H]2[C@H](CCN2C(=O)Cc2cccnc2)[C@H]1CO	> 50 µM (inactive)
COc1ccc(NC(=O)N2CC[C@@H]3[C@@H](CO)N(C)c4ccc(-c5ccc(F)cc5)cc4[C@@H]32)cc1	> 50 µM (inactive)
CN1c2ccc(-c3ccc(F)cc3)cc2[C@H]2[C@H](CCN2C(=O)Nc2ccc(F)cc2)[C@H]1CO	> 50 µM (inactive)
CCCCCCCC(=O)N1CC[C@@H]2[C@@H](CO)N(C)c3ccc(-c4cccc(F)c4)cc3[C@@H]21	> 50 µM (inactive)
CN1c2ccc(-c3cccc(F)c3)cc2[C@H]2[C@H](CCN2C(=O)Cc2ccccc2)[C@H]1CO	> 50 µM (inactive)
COc1ccccc1C(=O)N1CCN(c2ccc(C(C)=O)cc2)CC1	> 50 µM (inactive)
CC(=O)c1ccc(N2CCN(C(=O)c3ccc4c(c3)OCO4)CC2)cc1	22.2 µM
CC(=O)c1ccc(N2CCN(C(=O)c3ccccc3Cl)CC2)cc1	> 50 µM (inactive)
CN1c2ccc(-c3ccc(F)cc3)cc2[C@H]2[C@H](CCN2C(=O)Cc2cccnc2)[C@H]1CO	> 50 µM (inactive)
CCCNC(=O)N1CC[C@@H]2[C@@H](CO)N(C)c3ccc(-c4ccc(F)cc4)cc3[C@@H]21	> 50 µM (inactive)
CN1c2ccc(-c3cccc(F)c3)cc2[C@H]2[C@H](CCN2C(=O)CCCCCCN)[C@H]1CO	> 50 µM (inactive)
CN1c2ccc(-c3cccc(F)c3)cc2[C@H]2[C@H](CCN2C(=O)Nc2ccccc2F)[C@H]1CO	> 50 µM (inactive)
COCC(=O)N1CC[C@@H]2[C@@H](CO)N(C)c3ccc(-c4cccc(F)c4)cc3[C@@H]21	> 50 µM (inactive)
CN(C)C(=O)c1ccc(N2CCN(C(=O)c3ccc4c(c3)OCO4)CC2)cc1	> 50 µM (inactive)
CNS(=O)(=O)c1ccc(N2CCN(C(=O)c3ccc4c(c3)OCO4)CC2)cc1	> 50 µM (inactive)
CN1c2ccc(-c3cccc(F)c3)cc2[C@@H]2[C@@H](CCN2C(=O)c2ccc3c(c2)OCO3)[C@H]1CO	> 50 µM (inactive)
